Experimental data taken from patent EP4640234A1, “PHARMACEUTICAL COMPOSITION FOR PREVENTING OR TREATING GRAFT-VERSUS-HOST DISEASE CONTAINING GLP-2 DERIVATIVE OR LONG-ACTING CONJUGATE THEREOF” (Hanmi Pharm. Co., Ltd., priority 2022, dated 2024).

Test system: SR-GVHD model induced by allogeneic transplantation
Assay: SR-GVHD mouse allogeneic transplantation model, switching from steroid to conjugate (Example 4)
Assay type: in vivo, BALB/C mice (recipients)
Settings: Group 2: Apraglutide 469 µg/kg once every other day, subcutaneously, from 3 days after splenocyte injection; excipient group 21.4%; FIG. 4
Protocol: In order to construct a mouse allogeneic transplantation model as a graft-versus-host disease (GVHD) model, female donor mice C57BL/6j were purchased from OrientBio (Korea), and female recipient mice BALB/C were purchased from DBL (Korea). The mice were raised in a sterile environment with a 12-h light/dark cycle. Food and water were provided ad libitum, and all procedures were performed under the approval of the Animal Experimentation Committee.
In order to mobilize hematopoietic stem cells (HSCs) into peripheral blood from 13-week-old C57BL/6j mice (donors), 10 µg of G-CSF (granulocyte-colony stimulating factor) (PeproTech, USA) was injected subcutaneously for 5 days, and then 1.5 × 10^7 splenocytes were collected. The 1.5 × 10^7 splenocytes (200 µL volume) were injected into BALB/C mice (recipients) through the tail vein. […]
The numerical value expressed as the dose of the GLP-2 derivative long-acting conjugate herein is based on the value acquired by excluding the mass of the polyethylene glycol linker moiety from the total mass of the GLP-2 derivative long-acting conjugate used, that is, the sum of the masses of only the polypeptide moieties.
The onset signs were evaluated using the same criteria as in Table 3, the survival rate was determined, and the small intestine and colon tissues were harvested and pathological changes were observed.

Apraglutide was tested, and the “survival rate on day 25” value was 35.7%.
